Assay results reported in PubChem BioAssay AID1745844 (Carcinogenic Potency Database (CPDB), 2022).
The source made the active and inactive calls. The rule behind the calls is not given here.

Tested on: rodent lifetime carcinogenesis bioassay, tumor incidence TD50
Assay: carcinogenic potency in animals, long-term in vivo studies, CPDB compilation (AID 1745844)

SMILES: CSCCC(N)C(=O)O (stereo not given)
- TD50 (mouse, strain C3H/HeN, males, in feed, site: liver, lesion: hepatocellular adenoma, dosed 52 weeks, study length 52 weeks): 4160 mg/kg/day
- TD50 (mouse, strain C3H/HeN, males, in feed, site: liver, lesion: hepatocellular carcinoma, dosed 52 weeks, study length 52 weeks): 4470 mg/kg/day
- TD50 (mouse, strain C3H/HeN, males, in feed, site: liver, lesion: several types, types named in the paper, dosed 52 weeks, study length 52 weeks): 2000 mg/kg/day
- carcinogen call (rat, strain Fischer 344, males, in feed, site: liver, lesion: neoplastic nodule, dosed 72 weeks, study length 103 weeks): negative (inactive)

SMILES: c1ccc2sc(SN3CCOCC3)nc2c1
- TD50 (mouse, strain B6AKF1, females, oral dosing, site: any site (literature study), lesion: several types, types named in the paper, dosed 76 weeks, study length 76 weeks): 1310 mg/kg/day (inactive)
- carcinogen call (mouse, strain B6AKF1, females, oral dosing, site: liver, lesion: hepatoma, dosed 76 weeks, study length 76 weeks): negative (inactive)
- carcinogen call (mouse, strain B6AKF1, females, oral dosing, site: lung, lesion: adenoma, dosed 76 weeks, study length 76 weeks): negative (inactive)
- carcinogen call (mouse, strain B6AKF1, males, oral dosing, site: any site (literature study), lesion: several types, types named in the paper, dosed 76 weeks, study length 76 weeks): negative (inactive)
- TD50 (mouse, strain B6AKF1, males, oral dosing, site: liver, lesion: hepatoma, dosed 76 weeks, study length 76 weeks): 20100 mg/kg/day (inactive)
- carcinogen call (mouse, strain B6AKF1, males, oral dosing, site: lung, lesion: adenoma, dosed 76 weeks, study length 76 weeks): negative (inactive)
- TD50 (mouse, strain B6C3F1, females, oral dosing, site: any site (literature study), lesion: several types, types named in the paper, dosed 76 weeks, study length 76 weeks): 386 mg/kg/day (inactive)
- TD50 (mouse, strain B6C3F1, females, oral dosing, site: liver, lesion: hepatoma, dosed 76 weeks, study length 76 weeks): 1230 mg/kg/day (inactive)
- TD50 (mouse, strain B6C3F1, females, oral dosing, site: lung, lesion: adenoma, dosed 76 weeks, study length 76 weeks): 598 mg/kg/day (inactive)
- TD50 (mouse, strain B6C3F1, males, oral dosing, site: any site (literature study), lesion: several types, types named in the paper, dosed 76 weeks, study length 76 weeks): 200 mg/kg/day (inactive)
- TD50 (mouse, strain B6C3F1, males, oral dosing, site: liver, lesion: hepatoma, dosed 76 weeks, study length 76 weeks): 359 mg/kg/day (inactive)
- TD50 (mouse, strain B6C3F1, males, oral dosing, site: lung, lesion: adenoma, dosed 76 weeks, study length 76 weeks): 556 mg/kg/day (inactive)

SMILES: CCNC(=O)Nc1ncc([N+](=O)[O-])s1
- TD50 (mouse, strain B6C3F1, females, in feed, site: any site (literature study), lesion: several types, types named in the paper, dosed 94 weeks, study length 104 weeks): 1400 mg/kg/day (inactive)
- TD50 (mouse, strain B6C3F1, females, in feed, site: liver, lesion: hepatocellular adenoma + hepatocellular carcinoma + neoplastic nodule, dosed 94 weeks, study length 104 weeks): 2720 mg/kg/day
- TD50 (mouse, strain B6C3F1, males, in feed, site: any site (literature study), lesion: several types, types named in the paper, dosed 94 weeks, study length 104 weeks): 4750 mg/kg/day
- TD50 (mouse, strain B6C3F1, males, in feed, site: liver, lesion: hepatocellular adenoma + hepatocellular carcinoma + neoplastic nodule, dosed 94 weeks, study length 104 weeks): 758 mg/kg/day
- TD50 (mouse, strain B6C3F1, males, in feed, site: liver, lesion: hepatocellular adenoma + hepatocellular carcinoma, dosed 94 weeks, study length 104 weeks): 758 mg/kg/day
- TD50 (mouse, strain B6C3F1, males, in feed, site: liver, lesion: hepatocellular carcinoma, dosed 94 weeks, study length 104 weeks): 1900 mg/kg/day
- TD50 (rat, strain Fischer 344, females, in feed, site: any site (literature study), lesion: several types, types named in the paper, dosed 94 weeks, study length 104 weeks): 175 mg/kg/day
- TD50 (rat, strain Fischer 344, females, in feed, site: mammary gland + skin + subcutaneous tissue, lesion: cystadenoma, NOS + fibroadenoma, dosed 94 weeks, study length 104 weeks): 131 mg/kg/day
- carcinogen call (rat, strain Fischer 344, males, in feed, site: any site (literature study), lesion: several types, types named in the paper, dosed 94 weeks, study length 104 weeks): negative (inactive)
- TD50 (rat, strain Fischer 344, males, in feed, site: liver, lesion: hepatocellular adenoma + hepatocellular carcinoma + neoplastic nodule, dosed 94 weeks, study length 104 weeks): 508 mg/kg/day

SMILES: CBr
- carcinogen call (mouse, strain B6C3F1, females, inhaled, site: any site (literature study), lesion: several types, types named in the paper, dosed 75 weeks, study length 104 weeks): negative (inactive)
- carcinogen call (mouse, strain B6C3F1, males, inhaled, site: any site (literature study), lesion: several types, types named in the paper, dosed 75 weeks, study length 104 weeks): negative (inactive)
- carcinogen call (mouse, strain Crj:BDF1, females, inhaled, site: liver, lesion: hepatocellular adenoma, dosed 104 weeks, study length 105 weeks): negative (inactive)
- TD50 (mouse, strain Crj:BDF1, females, inhaled, site: liver, lesion: hepatocellular carcinoma, dosed 104 weeks, study length 105 weeks): 23900 mg/kg/day (inactive)
- TD50 (mouse, strain Crj:BDF1, females, inhaled, site: lung, lesion: alveolar/bronchiolar adenoma, dosed 104 weeks, study length 105 weeks): 6420 mg/kg/day (inactive)
- carcinogen call (mouse, strain Crj:BDF1, females, inhaled, site: lung, lesion: alveolar/bronchiolar carcinoma, dosed 104 weeks, study length 105 weeks): negative (inactive)
- TD50 (mouse, strain Crj:BDF1, females, inhaled, site: lymph node, lesion: malignant lymphoma, dosed 104 weeks, study length 105 weeks): 845 mg/kg/day (inactive)
- carcinogen call (mouse, strain Crj:BDF1, males, inhaled, site: liver, lesion: hepatocellular adenoma, dosed 104 weeks, study length 105 weeks): negative (inactive)
- carcinogen call (mouse, strain Crj:BDF1, males, inhaled, site: liver, lesion: hepatocellular carcinoma, dosed 104 weeks, study length 105 weeks): negative (inactive)
- carcinogen call (mouse, strain Crj:BDF1, males, inhaled, site: lung, lesion: alveolar/bronchiolar adenoma, dosed 104 weeks, study length 105 weeks): negative (inactive)
- carcinogen call (mouse, strain Crj:BDF1, males, inhaled, site: lung, lesion: alveolar/bronchiolar carcinoma, dosed 104 weeks, study length 105 weeks): negative (inactive)
- TD50 (rat, strain F344/DuCrj, females, inhaled, site: adrenal gland, lesion: pheochromocytoma, dosed 104 weeks, study length 105 weeks): 805 mg/kg/day (inactive)
- carcinogen call (rat, strain F344/DuCrj, females, inhaled, site: liver, lesion: hepatocellular adenoma, dosed 104 weeks, study length 105 weeks): negative (inactive)
- carcinogen call (rat, strain F344/DuCrj, females, inhaled, site: liver, lesion: hepatocellular carcinoma, dosed 104 weeks, study length 105 weeks): negative (inactive)
- carcinogen call (rat, strain F344/DuCrj, males, inhaled, site: liver, lesion: hepatocellular adenoma, dosed 104 weeks, study length 105 weeks): negative (inactive)
- carcinogen call (rat, strain F344/DuCrj, males, inhaled, site: liver, lesion: hepatocellular carcinoma, dosed 104 weeks, study length 105 weeks): negative (inactive)
- TD50 (rat, strain F344/DuCrj, males, inhaled, site: peritoneum, lesion: mesothelioma, malignant, dosed 104 weeks, study length 105 weeks): 40.8 mg/kg/day (inactive)
- TD50 (rat, strain F344/DuCrj, males, inhaled, site: pituitary gland, lesion: adenoma, dosed 104 weeks, study length 105 weeks): 31.8 mg/kg/day (inactive)
- carcinogen call (rat, strain Wistar-random, females, inhaled, site: any site (literature study), lesion: malignant tumor, dosed 129 weeks, study length 129 weeks): negative (inactive)
- carcinogen call (rat, strain Wistar-random, females, inhaled, site: any site (literature study), lesion: one or several types, types not named, dosed 129 weeks, study length 129 weeks): negative (inactive)
- carcinogen call (rat, strain Wistar-random, females, inhaled, site: liver, lesion: cholangiocarcinoma, dosed 129 weeks, study length 129 weeks): negative (inactive)
- TD50 (rat, strain Wistar-random, females, inhaled, site: liver, lesion: neoplastic nodule, dosed 129 weeks, study length 129 weeks): 2240 mg/kg/day (inactive)
- carcinogen call (rat, strain Wistar-random, females, inhaled, site: nasal cavity, olfactory epithelium, lesion: one or several types, types not named, dosed 129 weeks, study length 129 weeks): negative (inactive)
- carcinogen call (rat, strain Wistar-random, females, inhaled, site: nasal cavity, respiratory epithelium, lesion: one or several types, types not named, dosed 129 weeks, study length 129 weeks): negative (inactive)
- carcinogen call (rat, strain Wistar-random, males, inhaled, site: any site (literature study), lesion: malignant tumor, dosed 128 weeks, study length 128 weeks): negative (inactive)
- carcinogen call (rat, strain Wistar-random, males, inhaled, site: any site (literature study), lesion: one or several types, types not named, dosed 128 weeks, study length 128 weeks): negative (inactive)
- carcinogen call (rat, strain Wistar-random, males, inhaled, site: liver, lesion: cholangiocarcinoma, dosed 128 weeks, study length 128 weeks): negative (inactive)
- carcinogen call (rat, strain Wistar-random, males, inhaled, site: liver, lesion: hepatocellular carcinoma, dosed 128 weeks, study length 128 weeks): negative (inactive)
- carcinogen call (rat, strain Wistar-random, males, inhaled, site: liver, lesion: neoplastic nodule, dosed 128 weeks, study length 128 weeks): negative (inactive)
- carcinogen call (rat, strain Wistar-random, males, inhaled, site: nasal cavity, olfactory epithelium, lesion: one or several types, types not named, dosed 128 weeks, study length 128 weeks): negative (inactive)
- carcinogen call (rat, strain Wistar-random, males, inhaled, site: nasal cavity, respiratory epithelium, lesion: fibrosarcoma, dosed 128 weeks, study length 128 weeks): negative (inactive)
- carcinogen call (rat, strain Wistar-random, males, inhaled, site: nasal cavity, respiratory epithelium, lesion: osteosarcoma, dosed 128 weeks, study length 128 weeks): negative (inactive)
- carcinogen call (rat, strain Wistar-random, males, inhaled, site: nasal cavity, respiratory epithelium, lesion: squamous-cell carcinoma, dosed 128 weeks, study length 128 weeks): negative (inactive)
- carcinogen call (rat, strain Wistar-random, males, inhaled, site: pituitary gland, lesion: hemorrhagic tumor, dosed 128 weeks, study length 128 weeks): negative (inactive)
